The values that follow come from patent US10390536B2, “Methods, compounds and compositions for repelling insects and/or arachnids” (National Center for Scientific Research “Demokritos”, priority 2013, dated 2019).

For experiment [1], the system named is sand fly Lutzomyia longipalpis. In words: warm body repellence assay with sand flies. To be noted: for Median of landings: 2 minutes, control 48. The format is in vivo. As for the experimental part:
To test the effects of repellent compounds or compositions disclosed herein on other blood-feeding arthropods, a warm body repellence assay (Krober et. al. (2010). An In Vitro Assay for Testing Mosquito Repellents Employing a Warm Body and Carbon Dioxide as a Behavioral Activator. Journal of the American Mosquito Control Association 26(4): 381-386] was conducted using the sand fly Lutzomyia longipalpis (Diptera: Psychodidae), the principal vector of Leishmania (or leismaniasis) in the Americas.
[…] Fifty L. longipalpis sandflies (male:female ratio 1:1) of 3-7 days old were tested during the scotophase under conditions described for A. gambiae in Example 6. The test cages were lined with filter paper. Reduction in the number of landings by L. longipalpis sand fly females on a warm body treated with different test products compared to the control with solvent (ethanol p.a.) alone was used to evaluate repellence. Tests were conducted in complete darkness using IR LEDs to illuminate the warm body. Landings counted during 2 minutes were normalized by experimental day, cage, and number of females by a mixed linear model before testing for differences.

The subject of another experiment is A. gambiae females. Put plainly: wind tunnel spatial repellence (landings on treated netting downwind of dirty sock). The class given is in vivo, Anopheles gambiae. Particulars: for inhibition of landing on treated netting (in words): 38 or 57 μg DEET/cm^2, 38 or 76 μg carvacrol/cm^2; for Mean Landings/5 minutes: control 24.6. As for the experimental part: Carvacrol was tested in a wind tunnel (60×60×120 cm) in order to test for inhibition of the attractiveness of dirty socks, which are otherwise very attractive to the malaria mosquito A. gambiae. Experiments were conducted at 25° C. and 80% relative humidity at a wind speed of 0.5 m·s^−1 during the last 6 hours of scotophase. Dim fluorescent light (4 Lux) was provided from above (Philips TLD, 32 Watts at 36 KHz). A tube (55 mm inner diameter) was covered at its downwind end with mosquito netting which was treated with 38 or 57 μg DEET/cm^2 or 38 or 76 μg carvacrol/cm^2 or the solvent (ethanol) alone (control). Groups of 30 A. gambiae females were released from a release cage at the downwind end of the wind tunnel and their landing behaviour on the mosquito netting was recorded with a high definition video camera. The number of mosquitoes landing on the mosquito netting over 5 minutes was counted.

Experiment [2] deals with female A. gambiae antennae. In words: GC-coupled electroantennogram (GC-EAG) recording. Particulars: compounds eluting from GC of essential oils. On the set-up: species or system Anopheles gambiae. From the text:
Electrophysiological recordings from whole mosquito antenna: Coupling EAG recordings from an A. gambiae antenna to the effluent of a high-resolution gas chromatographic (GC) column permitted the determination of the elution profiles of biologically active components of essential oils showing repellence. Recordings were made from to 4-9 day-old female mosquitoes. The head was excised at the occipital opening and placed on the reference glass electrode containing Hayes mosquito Ringer [Hayes (1953). Determination of a physiological saline for Aedes aegypti (L.). J Econ Entomol 46: 624-627] mounted in a humidified air-stream (90-98% RH; Guerin and Visser (1980). Electroantennogram Responses of the Carrot Fly, Psila rosae, to Volatile Plant Components. Physiological Entomology 5(2): 111-119] and its antenna exposed to compounds eluting from the GC column (Biessamann et al. (2010). The Anopheles gambiae odorant binding protein 1 (AgamOBP1) mediates indole recognition in the antennae of female mosquitoes. PLoS One 5(3): e9471]. The EAG response was recorded via a glass electrode filled with Kaissling sensillum lymph Ringer [Kaissling (1995). Single unit and electroantennogram recordings in insect olfactory organs. In Experimental Cell Biology of Taste and Olfaction. Current Techniques and Protocols, Spielman AlaB, J. G. (ed), 361-386. Boca Raton, Fla.: CRC Press] brought into contact with the terminal antennal segment whose tip was cut off. Only antennae showing an EAG response at least double the noise level to a 1 ml puff of air over 1 μg geranylacetone in a 5 ml stimulus syringe were used for recording EAG responses to the essential oils.
To conduct a GC-EAG analysis, about 2 μg of an essential oil was injected in 1-3 μL of dichloromethane (DCM) onto an apolar capillary column (95% dimethyl polysiloxan with 5% diphenyl polysiloxan, 15 m long, 0.25 mm i.d., 0.10 μm film thickness; BGB Analytik, Switzerland) installed in a 5300 Carlo Erba Instruments chromatograph. Hydrogen was used as carrier gas with the oven held at 40° C. for 3 minutes then heated up 25° C./min to 230° C. and held at the final temperature for 15 min. The column effluent was split (50:50) between the flame ionization detector (FID) of the chromatograph and the mosquito antennal preparation. The EAG signal was fed into an AC/DC amplifier (×100) via a high impedance preamplifier (×10), recorded on the hard disk of a PC via a 16-bit analogue-digital IDAC4 interface (Syntech, Netherlands) and monitored simultaneously with an oscilloscope (Tektronix 5103, USA). Kovats retention indices (KIs) were calculated for the EAG-active compounds present in the extracts and fractions. FIG. 1 illustrates the results obtained using the GC-EAG analysis. […]

Experiment [3] deals with Ixodes ricinus (Ixodidae) nymphs. In words: tick repellence assay on warm glass plate. Particulars: 10 μg/cm^2; nymphs dropped off or walked down the warm glass plate; control 8. The format is in vivo. As for the experimental part: The products were tested at a dose of 10 μg/cm^2 on Ixodes ricinus (Ixodidae) nymphs according the protocol described in Krober, T. et al. (2013). A standardised in vivo and in vitro test method for evaluating tick repellents. Pesticide Biochemistry and Physiology 107: 160-168] with the following modifications: The test products (dissolved in ethanol) were allowed to evaporate for 40 s (as in the warm body test with mosquitoes) and the warm glass plates were used up to 250 s after application of the test products for the repellence assay. Four repetitions were made with carvacrol with 3, 4, 4 and 5 nymphs, i.e. with a total of 16 I. ricinus nymphs, of which in total 75% (12) were affected in that they either dropped off or walked down the warm glass plate.
The mixture of carvacrol+cumin alcohol+butyl-cinnamate was tested in two repetitions with 6 and 7 nymphs, i.e. with a total of 13 I. ricinus nymphs, of which 100% were affected in that they either dropped off or walked down the warm glass plate. Of 12 Ixodes ricinus tested in the control (ethanol only) only one tick (8%) was affected (Table 8).

Setting [4] is: netting treated with 38 μg/cm^2.

Turning to `CCN(CC)C(=O)c1cccc(C)c1` [DEET, N,N-diethyl-3-methylbenzamide, reference compound], the Median of landings is recorded as 6 in experiment [1] (20 nmol/cm^2) and 5 in experiment [1] (200 nmol/cm^2). For the same compound, the “inhibition of landing on treated netting (in words)” value in the experiment on A. gambiae females is recorded as “clearly inhibited”. Moreover, the “Mean Landings/5 minutes” value with A. gambiae females (setting [4]) and with A. gambiae females (netting treated with 57 μg/cm^2 (300 nmol/cm^2)) was 0 Landings/5 minutes throughout.
As to `Cc1ccc(C(C)C)cc1O` [carvacrol, 5-isopropyl-2-methylphenol], the “EAG response of antenna” value in experiment [2] is recorded as “capable of triggering EAG responses”. Besides, the “% affected ticks” value in experiment [3] is listed as 75%. The Median of landings is listed as 23 in experiment [1] (20 nmol/cm^2) and 1 in experiment [1] (200 nmol/cm^2). The “repellence of sand flies from the warm body (in words)” value in experiment [1] (20 and 200 nmol/cm^2) is “as effective as DEET at 20 nmol/cm^2”. Also, in the experiment with A. gambiae females, the “inhibition of landing on treated netting (in words)” value is on record as “clearly inhibited”. Moreover, the “Mean Landings/5 minutes” value in the experiment on A. gambiae females (setting [4]) and with A. gambiae females (netting treated with 76 μg/cm^2 (500 nmol/cm^2)) was 0 Landings/5 minutes throughout.
`CC(C)c1ccc(CO)cc1` [cumin alcohol]: in experiment [2], the “EAG response of antenna” value is recorded as “capable of triggering EAG responses”.
